# In ChEMBL document CHEMBL5260839 (J Med Chem, 2019):
# Active and inactive are the calls of the source. The rule behind the calls is not given here.
# Assays:
# MOLM-14 [1] = test: cells; settings: Homo sapiens, MOLM-14, 96 h
# RS4-11 [2] = test: Potency index, ratio of MI-1061 IC50 to test compound IC50 for inhibition of cell growth in human RS4-11 cells incubated for 4 days by lactate dehydrogenase based WST-8 assay; type: functional; settings: time 4 day
# OCI-AML-5 [3] = test: cells; settings: Homo sapiens, OCI-AML-5, 96 h
# MV4-11 [4] = test: Potency index, ratio of MI-1061 IC50 to test compound IC50 for inhibition of cell growth in human MV4-11 cells incubated for 4 days by lactate dehydrogenase based WST-8 assay; type: functional; settings: time 4 day
# MV4-11 [5] = test: Inhibition of cell growth in human MV4-11 cells incubated for 4 days in the presence of lenalidomide by Lactate dehydrogenase based WST-8 assay; type: functional; settings: time 4.0 day
# [6] = biological target: T1, Protein cereblon/E3 ubiquitin-protein ligase Mdm2 (Homo sapiens) (UniProt Q00987+Q96SW2); test: PROTAC activity at CRBN/MDM2 in human RS4-11 cells harbouring wildtype p53 assessed as upregulation of TP53 mRNA expression at 0.03 to 0.1 uM incubated for 6 hrs by qRT-PCR analysis; type: cell-based; settings: dose 0.03-0.1 µM
# T1 sequence (Q00987 whole entry, looked up): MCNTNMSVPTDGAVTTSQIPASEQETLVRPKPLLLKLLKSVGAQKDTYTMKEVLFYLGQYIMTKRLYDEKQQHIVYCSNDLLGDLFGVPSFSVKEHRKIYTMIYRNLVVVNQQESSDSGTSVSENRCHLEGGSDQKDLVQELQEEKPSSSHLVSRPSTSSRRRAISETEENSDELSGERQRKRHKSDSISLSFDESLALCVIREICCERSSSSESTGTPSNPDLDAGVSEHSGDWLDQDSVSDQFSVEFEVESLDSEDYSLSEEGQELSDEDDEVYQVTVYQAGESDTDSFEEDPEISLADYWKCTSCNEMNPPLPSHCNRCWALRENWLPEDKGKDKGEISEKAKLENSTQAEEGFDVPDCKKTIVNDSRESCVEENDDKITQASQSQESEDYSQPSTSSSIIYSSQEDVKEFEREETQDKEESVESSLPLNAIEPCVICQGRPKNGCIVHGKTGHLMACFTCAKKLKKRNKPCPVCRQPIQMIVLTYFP
# T1 sequence (Q96SW2 whole entry, looked up): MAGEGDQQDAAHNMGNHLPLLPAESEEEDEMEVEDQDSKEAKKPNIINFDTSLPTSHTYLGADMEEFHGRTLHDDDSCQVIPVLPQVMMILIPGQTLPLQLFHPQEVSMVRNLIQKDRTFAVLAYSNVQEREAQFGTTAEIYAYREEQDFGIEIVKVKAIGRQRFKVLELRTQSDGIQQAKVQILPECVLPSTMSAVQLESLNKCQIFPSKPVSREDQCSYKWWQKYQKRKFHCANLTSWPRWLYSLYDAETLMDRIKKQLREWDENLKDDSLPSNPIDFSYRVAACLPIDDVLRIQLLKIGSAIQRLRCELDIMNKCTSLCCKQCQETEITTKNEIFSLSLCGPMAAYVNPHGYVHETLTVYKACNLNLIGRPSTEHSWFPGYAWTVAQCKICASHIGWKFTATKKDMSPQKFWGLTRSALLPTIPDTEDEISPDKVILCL
# [7] = Toxicity in mouse xenografted with human RS4-11 cells assessed as weight loss at 10 to 25 mg/kg, iv administered three times a week; type: organism-based; settings: in vivo, 168 h, dose 10-25 mg/kg, time 1 weeks
# MOLM-14 [8] = test: Potency index, ratio of MI-1061 IC50 to test compound IC50 for inhibition of cell growth in human MOLM-14 cells harbouring wild type p53 incubated for 4 days by lactate dehydrogenase based WST-8 assay; type: functional; settings: time 4 day
# RS4-11 [9] = test: Antitumor activity against human RS4-11 cells xenografted in mouse assessed as tumor regression at 50 mg/kg, administered every other day for 3 weeks; type: functional, organism-based
# [10] = Toxicity in mouse xenografted with human RS4-11 cells assessed as weight loss at 25 mg/kg, iv administered for one week; type: organism-based; settings: in vivo, 168 h, time 1 weeks
# SIG-M5 [11] = test: cells; settings: Homo sapiens, SIG-M5, 96 h
# [12] = Toxicity in mouse xenografted with human RS4-11 cells assessed as weight loss at 50 mg/kg, administered once a week for 3 weeks; type: organism-based; settings: in vivo, 504 h
# [13] = Toxicity in mouse xenografted with human RS4-11 cells assessed as signs of toxicity at 50 mg/kg, administered once a week for 3 weeks; type: organism-based; settings: in vivo, 504 h
# RS4-11 [14] = test: Antitumor activity against human RS4-11 cells xenografted in mouse assessed as inhibition of tumor growth at 50 mg/kg, administered once a week for 3 weeks; type: functional, organism-based
# RS4-11 [15] = test: Antitumor activity against human RS4-11 cells xenografted in mouse assessed as reduction in tumor growth at 25 mg/kg, iv administered for a week; type: functional, organism-based; settings: time 1.0 weeks
# RS4-11 [16] = test: Induction of apoptosis in human RS4-11 cells at 0.001 to 1 uM incubated for 24 hrs by Annexin-V/PI staining based flow cytometric analysis relative to MI-1061; type: functional; settings: dose 0.001-1 µM
# RS4-11 [17] = test: Inhibition of cell growth in human RS4-11 cells incubated for 4 days in the presence of lenalidomide by Lactate dehydrogenase based WST-8 assay; type: functional; settings: time 4.0 day
# [18] = Toxicity in mouse xenografted with human RS4-11 cells assessed as signs of toxicity at 25 mg/kg, iv administered for one week; type: organism-based; settings: in vivo, 168 h, time 1 weeks
# [19] = biological target: T1, Protein cereblon/E3 ubiquitin-protein ligase Mdm2 (Homo sapiens); test: PROTAC activity at CRBN/MDM2 in human MV4-11 cells assessed as upregulation of MDM2 mRNA expression at 0.1 to 0.3 uM incubated for 6 hrs by qRT-PCR analysis; type: cell-based; settings: dose 0.1-0.3 µM
# KG-1 = test: cells; settings: Homo sapiens, KG-1, 96 h
# RS4-11 [20] = test: Antitumor activity against human RS4-11 cells xenografted in mouse assessed as reduction in tumor growth at 10 mg/kg, iv administered three times a week; type: functional, organism-based; settings: time 1.0 weeks
# [21] = Toxicity in mouse xenografted with human RS4-11 cells assessed as weight loss at 50 mg/kg, administered every other day for 3 weeks; type: organism-based; settings: in vivo, 504 h
# [22] = biological target: T1, Protein cereblon/E3 ubiquitin-protein ligase Mdm2 (Homo sapiens); test: PROTAC activity at CRBN/MDM2 in human MV4-11 cells assessed as upregulation of p53 mRNA expression at 0.1 to 0.3 uM incubated for 6 hrs by qRT-PCR analysis; type: cell-based; settings: dose 0.1-0.3 µM
# MOLM-13 [23] = test: Potency index, ratio of MI-1061 IC50 to test compound IC50 for inhibition of cell growth in human MOLM-13 cells harbouring wild type p53 incubated for 4 days by lactate dehydrogenase based WST-8 assay; type: functional; settings: time 4 day
# RS4-11 [24] = test: cells; settings: Homo sapiens, RS4-11, 96 h
# OCI-AML-5 [25] = test: Potency index, ratio of MI-1061 IC50 to test compound IC50 for inhibition of cell growth in human OCI-AML5 cells harbouring wild type p53 incubated for 4 days by lactate dehydrogenase based WST-8 assay; type: functional; settings: time 4 day
# RS4-11 [26] = test: Antitumor activity against human […] cells xenografted in mouse assessed as tumor regression at 25 mg/kg, administered daily 5 days a week for 2 weeks; type: functional, organism-based
# SIG-M5 [27] = test: Potency index, ratio of MI-1061 IC50 to test compound IC50 for inhibition of cell growth in human SIG-M5 cells harbouring wild type p53 incubated for 4 days by lactate dehydrogenase based WST-8 assay; type: functional; settings: time 4 day
# MONO-MAC-6 = test: cells; settings: Homo sapiens, MONO-MAC-6, 96 h
# [28] = biological target: T1, Protein cereblon/E3 ubiquitin-protein ligase Mdm2 (Homo sapiens); test: PROTAC activity at CRBN/MDM2 in human MV4-11 cells assessed as upregulation of p21 mRNA expression at 0.1 to 0.3 uM incubated for 6 hrs by qRT-PCR analysis; type: cell-based; settings: dose 0.1-0.3 µM
# [29] = Toxicity in mouse xenografted with human RS4-11 cells assessed as signs of toxicity at 10 to 25 mg/kg, iv administered three times a week; type: organism-based; settings: in vivo, 168 h, dose 10-25 mg/kg, time 1 weeks
# RS4-11 [30] = test: Antitumor activity against human RS4-11 cells xenografted in mouse assessed as reduction in tumor growth at 25 mg/kg, iv administered three times a week relative to control; type: functional; set-up: scale not given: the % may be the effect or the level left; settings: time 1 weeks
# RS4-11 [31] = test: Induction of apoptosis in human RS4-11 cells incubated for 24 hrs by Annexin-V/PI staining based flow cytometric analysis; type: functional, cell-based
# ML-2 [32] = test: Potency index, ratio of MI-1061 IC50 to test compound IC50 for inhibition of cell growth in human ML-2 cells harbouring wild type p53 incubated for 4 days by lactate dehydrogenase based WST-8 assay; type: functional; settings: time 4 day
# [33] = Toxicity in mouse xenografted with human RS4-11 cells assessed as signs o toxicity at 50 mg/kg, administered every other day for 3 weeks; type: organism-based; settings: in vivo, 504 h
# [34] = biological target: T1, Protein cereblon/E3 ubiquitin-protein ligase Mdm2 (Homo sapiens); test: PROTAC activity at CRBN/MDM2 in human MV4-11 cells assessed as upregulation of PUMA mRNA expression at 0.1 to 0.3 uM incubated for 6 hrs by qRT-PCR analysis; type: cell-based; settings: dose 0.1-0.3 µM
# MOLM-13 [35] = test: cells; settings: Homo sapiens, MOLM-13, 96 h
# ML-2 [36] = test: cells; settings: Homo sapiens, ML-2, 96 h
# [37] = biological target: T1, Protein cereblon/E3 ubiquitin-protein ligase Mdm2 (Homo sapiens); test: PROTAC activity at CRBN/MDM2 in human MV4-11 cells assessed as upregulation of TP53 mRNA expression at 0.1 to 0.3 uM incubated for 6 hrs by qRT-PCR analysis; type: cell-based; settings: dose 0.1-0.3 µM
compound,measurement,setting,value
O=C1CCC(N2Cc3c(C#CCCCNC(=O)c4ccc(NC(=O)[C@@H]5NC6(CCCCC6)[C@@]6(C(=O)Nc7cc(Cl)ccc76)[C@H]5c5cccc(Cl)c5F)cc4)cccc3C2=O)C(=O)N1 (some centres undefined),IC50,MOLM-14 [1],10.5 nM
same,Ratio IC50,RS4-11 [2],>10
same,IC50,OCI-AML-5 [3],33.1 nM
same,Ratio IC50,MV4-11 [4],>10
same,inhibition,MV4-11 [5],Active
same,Activity,[6],inactive
same,Activity,[7],Non-Toxic
same,Ratio IC50,MOLM-14 [8],>10
same,Activity,RS4-11 [9],Active
same,Activity,[10],Non-Toxic
same,IC50,SIG-M5 [11],19.8 nM
same,Activity,[12],Non-Toxic
same,Activity,[13],Non-Toxic
same,Activity,RS4-11 [14],Active
same,Activity,RS4-11 [15],Active
same,fold change (FC),RS4-11 [16],>10
same,inhibition,RS4-11 [17],inactive
same,Activity,[18],Non-Toxic
same,Activity,[19],Active
same,IC50,KG-1,> 10000 nM
same,Activity,RS4-11 [20],Active
same,Activity,[21],Non-Toxic
same,Activity,[22],Active
same,Ratio IC50,MOLM-13 [23],>10
same,IC50,RS4-11 [24],1.5 nM
same,Ratio IC50,OCI-AML-5 [25],>10
same,Activity,RS4-11 [26],Active
same,Ratio IC50,SIG-M5 [27],5.3
same,IC50,MONO-MAC-6,> 10000 nM
same,Activity,[28],Active
same,Activity,[29],Non-Toxic
same,Activity,RS4-11 [30],50%
same,Activity,RS4-11 [31],Dose-Dependent Effect
same,Ratio IC50,ML-2 [32],>10
same,Activity,[33],Non-Toxic
same,Activity,[34],Active
same,IC50,MOLM-13 [35],7.3 nM
same,IC50,ML-2 [36],4.4 nM
same,Activity,[37],inactive
